Source: EP4775208A1, “USE OF PRMT5 INHIBITOR IN TREATMENT OF TUMORS OR CANCERS” (Apeiron Therapeutics (Hong Kong) Ltd., priority 2023, dated 2025)

How the values were obtained:
Format in all cases: cell-based
[1] = test system: HCT-116 MTAP(-/-) deficient cells; experiment: Inhibition of proliferation of HCT-116 MTAP(-/-) deficient cells (Cell-Titer Glo); settings: 8 days
Outline: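 Cells in log-phase growth, RPMI-1640 with 10% FBS, seeded and left overnight at 37°C, 5% CO2. Compound tested at 0–10,000 nM (10 points, 3-fold, 0.1% DMSO) for 8 days at 37°C, 5% CO2. Viability read by CellTiter-Glo luminescence.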

[2] = test system: HCT-116 MTAP wild-type cells; experiment: Inhibition of proliferation of HCT-116 MTAP wild-type cells (Cell-Titer Glo); settings: 8 days
Outline: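 MTAP wild-type HCT-116 cells were seeded, cultured overnight and then exposed to compound from 10,000 nM down in a 10-point, 3-fold series (0.1% DMSO). Plates were incubated 8 days at 37°C, 5% CO2. Proliferation was read by Cell-Titer Glo viability luminescence.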

U87MG MTAP(-/-) cells = experiment: Inhibition of proliferation of U87MG MTAP(-/-) cells (CellTiter-Glo); settings: cell proliferation, 6 days
Method: Test 7: Assay for Inhibitory Activity of Compounds against U87MG MTAP(-/-) Cell Proliferation
Materials and Cells: The U87MG MTAP(-/-) cell line was purchased from ATCC (USA). Cell culture media, fetal bovine serum (FBS), and penicillin-streptomycin were purchased from Thermo Fisher Scientific (USA). 384-well plates were purchased from PerkinElmer (USA). The CellTiter-Glo assay kit was purchased from Promega (USA).
Cell Culture: U87MG MTAP(-/-) cells were cultured in a medium supplemented with 10% fetal bovine serum (FBS) and 1% penicillin-streptomycin at 37°C with 5% CO2. Only cells in the logarithmic growth phase were used for experiments.
Cell Proliferation Inhibition Assay: The antiproliferative activity of the compounds against U87MG MTAP(-/-) cells was assessed using the CellTiter-Glo assay kit. Cell suspensions were adjusted to the appropriate density and seeded into 384-well plates at a volume of 40 µL per well, then incubated overnight at 37°C with 5% CO2. Compounds (40 nL) were added to each well to achieve final concentrations ranging from 0 to 10,000 nM (starting concentration 10,000 nM, 3-fold serial dilutions, 10 dose points), with a final DMSO concentration of […]. The cell plates were incubated at 37°C with 5% CO2 for 6 days. Subsequently, 40 µL of CellTiter-Glo reagent was added to measure cell viability. Paclitaxel was used as a control compound.

Molecule	IC50 [1] [nM]	IC50 [2] [nM]	IC50 (U87MG MTAP(-/-) cells) [nM]	IC50 ([1]; Homo sapiens, HCT-116, 192 h) [nM]	IC50 ([2]; Homo sapiens, HCT-116, 192 h) [nM]	IC50 (U87MG MTAP(-/-) cells; Homo sapiens, U-87 MG, 144 h) [nM]
4-amino-N-methyl-N-(6-(trifluoromethyl)-2, 3-dihydrobenzo[b]thi ophen-3-yl)imidazo[1, 5-a]quinoxaline-8-car boxamide [Example 43]	22.4	2990	322			
C[C@H]1OC[C@@H](N(C)C(=O)c2ccc3nc(N)c4cncn4c3c2)c2ccc(F)cc21 (single isomer, unassigned) [Example 96]				6.6	1260	91.1
C[C@H]1OC[C@@H](N(C)C(=O)c2cc3c(cn2)nc(N)c2cncn23)c2ccc(C(F)(F)F)cc21 (single isomer, unassigned) [Example 98]				1.4	114	14.2
CN(C(=O)c1ccc2nc(N)c3cncn3c2c1)[C@@H]1COc2cc(S(F)(F)(F)(F)F)ccc21 (single isomer, unassigned) [Example 104]						28.8
C[C@H]1OC[C@@H](N(C)C(=O)c2ccc3nc(N)c4cncn4c3c2)c2ccc(C(F)(F)F)cc21 (single isomer, unassigned) [Example 106]				3.5	145	10
Cc1cc2nc(N)c3cncn3c2cc1C(=O)N(C)[C@@H]1COc2cc(C(F)(F)F)ccc21 [Example 15, (S)-4-amino-N,7-dime thyl-N-(6-(trifluoromethyl)-2,3-dihydrobenzofuran-3-yl)imidazo[1 ,5-a]quinoxaline-8-car boxamide]				3.5	282	19.8
CC1OC[C@@H](N(C)C(=O)c2ccc3nc(N)c4cncn4c3c2)c2ccc(-c3cnn(C)c3)cc21 (stereo partly drawn) [Example 22, 4-amino-N-methyl-N-((4S)-1-methyl-7-(1-methyl-1H-pyrazol-4-yl)isochroman-4-yl)i midazo[1,5-a]quinoxa line-8-carboxamide]				5.1	1690	81.2
CN(C(=O)c1cc2c(cc1F)nc(N)c1cncn12)[C@@H]1COc2cc(-c3cnn(C(F)(F)F)c3)ccc21 [Example 33, (S)-4-amino-7-fluoro-N-methyl-N-(6-(1-(trifluoromethyl)-1H-pyrazol-4-yl)-2,3-dihydrobenzofuran-3-yl)imid azo[1,5-a]quinoxaline-8-carboxamide]				15.1	2660	81.7
C[C@H]1OC[C@@H](N(C)C(=O)c2cc3c(cn2)nc(N)c2cncn23)c2ccc(C(F)(F)F)nc21 [Example 35, 4-amino-N-methyl-N-((5S,8R)-8-methyl-2-(trifluoromethyl)-5,8-dihydro-6H-pyrano[3,4-b]pyridin-5-yl)imida zo[1,5-a]pyrido[3,4-e] pyrazine-8-carboxamide]				23.2	2230	34.8
Nc1nc2cc(F)c(C(=O)N(C3CC3)C3COc4cc(N5CCOCC5)ccc43)cc2n2cncc12 (stereo not shown) [Example 121, 4-amino-N-cyclopropyl-7-fluoro-N-(6-mor pholino-2,3-dihydrobenzofuran-3-yl)imidaz o[1,5-a]quinoxaline-8-carboxamide]				73.7	> 10000	
CN(C(=O)c1cc2c(cn1)nc(N)c1cncn12)C1CCc2ccccc21 (stereo not shown) [Example 125, 4-amino-N-(2,3-dihydro-1H-inden-1-yl)-N-methylimidazo[1,5-a] pyrido[3,4-e]pyrazine-8-carboxamide]				2450	> 10000	
Nc1nc2ncc(C(=O)N(C3CC3)C3COc4cc(C(F)(F)F)ccc43)cc2n2cncc12 (stereo not shown) [Example 126, 4-amino-N-cyclopropyl-N-(6-(trifluoromethyl)-2,3-dihydrobenzof uran-3-yl)imidazo[1,5-a]pyrido[2,3-e]pyrazine-8-carboxamide]				592	> 20000	
CN(C(=O)c1ccc2nc(N)c3c(Br)ncn3c2c1)[C@@H]1COc2cc(C(F)(F)F)ccc21 [Example 127, (S)-4-amino-3-bromo-N-methyl-N-(6-(trifluoromethyl)-2,3-dihydrobenzofuran-3-yl)imidazo[1,5-a]quinoxaline-8-carboxamide]				100	9900	
CN(C(=O)c1ccc2nc(N)c3c(CO)ncn3c2c1)[C@@H]1COc2cc(C(F)(F)F)ccc21 [Example 128, (S)-4-amino-3-(hydroxymethyl)-N-methyl-N-(6-(trifluoromethyl)-2,3-dihydrobenzofuran-3-yl)imidazo[1,5-a]quinoxaline-8-carboxamide]				26	> 10000	
CN(C(=O)c1cc2c(cc1F)nc(N)c1cncn12)C1CSc2cc(C(F)(F)F)ccc21 (stereo not shown) [Example 129, 4-amino-7-fluoro-N-methyl-N-(6-(trifluoromethyl)-2,3-dihydrobenzo[b]thiophen-3-yl) imidazo[1,5-a]quinox aline-8-carboxamide]				14.5	2680	
CN(C(=O)c1ccc2nc(N)c3c(C#N)ncn3c2c1)[C@@H]1COc2cc(C(F)(F)F)ccc21 [Example 131, (S)-4-amino-3-cyano-N-methyl-N-(6-(trifluoromethyl)-2,3-dihydrobenzofuran-3-yl)imidazo[1,5-a]quinoxaline-8-carboxamide]				> 3000	> 10000	
CN(C(=O)c1ccc2nc(N)c3c(C(N)=O)ncn3c2c1)[C@@H]1COc2cc(C(F)(F)F)ccc21 [Example 132, (S)-4-amino-N8-methyl-N8-(6-(trifluoromethyl)-2,3-dihydrobenzofuran-3-yl)imidazo[1,5-a]quinoxaline-3,8-dicarboxamide]				> 3000	> 10000	
(R)-4-amino-7-fluoro-N-methyl-N-(7-(1-(tri fluoromethyl)-1H-pyr azol-4-yl)chroman-4-ylimidazo[1,5-a]quin oxaline-8-carboxamid e [Example 113]	88.1	> 10000				
(R)-4-amino-N-(6-bromo-2,3-dihydrobenzofuran-3-yl)-N-cyclopropylimidazo[1,5-a]quinoxaline-8-carboxamide [Example 81]	1790	2360				
(R)-4-amino-N-(6-cya no-2,3-dihydrobenzof uran-3-yl)-N-cyclopro pylimidazo[1,5-a]quin oxaline-8-carboxamid e [Example 91]	2180	> 20000				
(R)-4-amino-N-cyclo propyl-N-(6-(trifluoro methyl)-2,3-dihydrob enzofuran-3-yl)imidaz o[1,5-a]pyrido[3,4-e]p yrazine-8-carboxamid e [Example 87]	9030	10800				
(R)-4-amino-N-cyclo propyl-N-(6-(trifluoro methyl)-2,3-dihydrob enzofuran-3-yl)imidaz o[1,5-a]quinoxaline-8 -carboxamide [Example 83]	2640	4700				
(R)-4-amino-N-methy 1-N-(6-(pentafluoro-16 -sulfaneyl)-2,3-dihydr obenzofuran-3-yl)imi dazo[1,5-a]quinoxalin e-8-carboxamide [Example 103]	931	6260				
(R)-4-amino-N-methy 1-N-(6-(trifluoromethy 1)-2,3-dihydrofuro[2,3 -b]pyridin-3-yl)imida zo[1,5-a]quinoxaline-8-carboxamide [Example 89]	> 3000	> 10000				
(S)-4-amino-N-(6-(cy clopropylsulfonyl)-2,3 -dihydrobenzo[b]thio phen-3-yl)-N-methyli midazo[1,5-a]quinoxa line-8-carboxamide [Example 133]	71.4	> 10000				
(S)-4-amino-N-(6-bromo-2,3-dihydrobenzofuran-3-yl)-N-cyclopropylimidazo[1,5-a]quinoxaline-8-carboxamide [Example 82]	52.9	1920				
(S)-4-amino-N-(6-chl oro-2,3-dihydrobenzo furan-3-yl)-N-methyli midazo[1,5-a]quinoxa line-8-carboxamide [Example 70]	54	3890				
(S)-4-amino-N-(6-cya no-2,3-dihydrobenzof uran-3-yl)-N-cyclopro pylimidazo[1,5-a]quin oxaline-8-carboxamid e [Example 92]	46.6	4750				
(S)-4-amino-N-cyclop ropyl-N-(6-(trifluoro methyl)-2,3-dihydrob enzofuran-3-yl)imidaz o[1,5-a]pyrido[3,4-e]p yrazine-8-carboxamid e [Example 88]	24.1	1850				
(S)-4-amino-N-methy 1-N-(6-(trifluoromethy 1)-2,3-dihydrofuro[2,3 -b]pyridin-3-yl)imida zo[1,5-a]quinoxaline-8-carboxamide [Example 90]	36.4	> 10000				
